As usually defined, the Km is the concentration of substrate that gives half-maximal velocity.

SMILES strings stand for the structures.

Assay [1] deals with T1, Pelagiphage HTVC201P "AdoMetDC" (pyruvoyl-dependent ADC).
T1 construct: gene speD; 122 aa; recombinant, purified; class 1b AdoMetDC homolog, pyruvoyl enzyme
In words: decarboxylase activity assay. As to conditions: 27 °C. It is filed as biochemical, Pelagibacter phage HTVC201P. The source says:
decarboxylase activity assay on Pelagiphage HTVC201P "AdoMetDC" (pyruvoyl-dependent ADC)

For another assay, the system named is T2, KNV1 arginase homolog.
T2 construct: expressed in E. coli, purified
In words: released urea detection. It counts as biochemical, Klosneuvirus KNV1.

The subject of assay [2] is T3, UCP01 AdoMetDC homolog (pyruvoyl-dependent ODC).
T3 construct: gene speD; 117 aa; recombinant, purified; pyruvoyl enzyme
Nature of the assay: decarboxylase activity assay. It counts as biochemical, uncultured Myoviridae sp. As to conditions: 26 °C. The source says: decarboxylase activity assay on UCP01 AdoMetDC homolog (pyruvoyl-dependent ODC)

The next assay has as its system Klosneuvirus KNV1 ODC. As to conditions: 26 °C.
Assay [3] deals with T4, UCP03 AdoMetDC homolog (pyruvoyl-dependent ODC).
T4 construct: gene speD
As to conditions: 26 °C.
Source text: decarboxylase activity assay on UCP03 AdoMetDC homolog (pyruvoyl-dependent ODC)

In assay [4] the test system is T5, UCP04 AdoMetDC homolog (pyruvoyl-dependent ODC).
T5 construct: gene speD
As to conditions: 26 °C.
Source text: decarboxylase activity assay on UCP04 AdoMetDC homolog (pyruvoyl-dependent ODC)

The test system of assay [5] is T6, LBP AdoMetDC homolog (pyruvoyl-dependent ODC).
T6 construct: gene speD
As to conditions: 26 °C.
Source text: decarboxylase activity assay on LBP AdoMetDC homolog (pyruvoyl-dependent ODC)

In assay [6] the test system is Yellowstone Lake phycodnavirus 2 ODC. As to conditions: 26 °C.
Source text: decarboxylase activity assay on Yellowstone Lake phycodnavirus 2 ODC
In assay [7] the test system is T7, UCP02 AdoMetDC homolog (pyruvoyl-dependent ODC).
T7 construct: gene speD
As to conditions: 26 °C.
Source text: decarboxylase activity assay on UCP02 AdoMetDC homolog (pyruvoyl-dependent ODC)

For a further assay, the system named is T8, Hyperionvirus sp. APAH.
T8 construct: 351 aa; expressed in E. coli, purified
Nature of the assay: colorimetric acetate release. It counts as biochemical. As to conditions: 26 °C. An excerpt:
colorimetric acetate release on Hyperionvirus sp. APAH

The test system of a further assay is T9, Klosneuvirus KNV1 APAH.
T9 construct: 345 aa; expressed in E. coli, purified
Nature of the assay: colorimetric acetate release. It is filed as biochemical. As to conditions: 26 °C. The source says:
colorimetric acetate release on Klosneuvirus KNV1 APAH

For the compound `N=C(N)NCCC[C@H](N)C(=O)O` [L-arginine], the Km was 870 ± 110 µM in assay [1], 1300 ± 160 µM in the assay on KNV1 arginase homolog and 2200 ± 290 µM in assay [2].

As to `NCCC[C@H](N)C(=O)O` [L-ornithine], the Km turned out to be 5500 ± 290 µM in assay [2]; 430 ± 20 µM with Klosneuvirus KNV1 ODC; 620 ± 10 µM in assay [3]; 440 ± 40 µM in [4]; 3800 ± 430 µM in [5]; 540 ± 200 µM in assay [6]. Besides, the Km in assay [7] is 2400 ± 190 µM.

For the compound `CC(=O)NCCCNCCCCN` [N^1-acetylspermidine], the Michaelis constant (Km) with Hyperionvirus sp. APAH was determined as 1600 ± 160 µM; in the assay on Klosneuvirus KNV1 APAH, 240 ± 20 µM.

For `CC(=O)NCCCCNCCCN` [N^8-acetylspermidine], the Km is 5000 ± 730 µM with Hyperionvirus sp. APAH and 450 ± 10 µM with Klosneuvirus KNV1 APAH.

Source of the values: article PMC9992855, “Functional polyamine metabolic enzymes and pathways encoded by the virosphere” (Proceedings of the National Academy of Sciences of the …, 2023).
